Data on 2 substances can be found in patent US9958453B2, “Biological sensing method for separating biomolecule” (priority 2015, dated 2018).

In one experiment the test system is Streptococcus mutans. Briefly: Field-effect transistor biological sensing device, comparative example Streptococcus mutans. In kind it is binding. The settings on record: FIG. 4. How it is done: Furthermore, the present experimental example applied Streptococcus mutans as a comparative example using the abovementioned biological sensing device 300 and detecting method. The field-effect transistor modified with the amino acid sequence including the sequence shown in SEC) ID NO: 1 was contact to broths of Streptococcus mutans with different concentrations, and the potential difference of the surface of the field-effect transistor modified was measured.
FIG. 4 is a potential difference-bacterial concentration diagram of a comparative example for a detecting experiment, which the bacterial concentration is represented by the number of colonies per mL of the broth. […] Therefore, Streptococcus […] is not recognized by and bound to the amino acid sequence of the biological sensing device of the present invention.

Another experiment concerns UlaG protein. Nature of the experiment: Phage display peptide screening against UlaG protein on ELISA plate. The experiment is classed as binding. The note with it: UlaG protein expressed by Escherichia coli, purified, modified onto ELISA plate. The text has this:
The screening method of an amino acid according to an embodiment of the present invention included the following steps: • 1. UlaG protein was largely expressed by Escherichia coli • 2. The UlaG protein in step 1 was purified, and then modified onto an enzyme-linked immunosorbent assay (ELISA) plate. • 3. Phage display peptide system was used to perform the screening. The phage display peptide system used bacteriophages with various peptide segments to contact the UlaG protein. After a process of repeated binding, washing, eluting, amplifying, and re-binding, the bacteriophage that can bind to the UlaG protein was selected. • 4. The selected bacteriophage in step 3 was amplified and sequenced by polymerase chain reaction (PCR). The amino acid sequence that can bind to the UlaG protein was then obtained.
Therefore, an amino acid sequence including the sequence shown in SEQ ID NO: 1 or SEQ ID NO: 2 can be used in the recognition of the UlaG protein.

For a further experiment, the system named is Streptococcus pneumoniae. Briefly: Field-effect transistor biological sensing device, detecting of Streptococcus pneumoniae. In kind it is binding, Streptococcus pneumoniae ATCC 49136. The note with it: amino acid sequence modified onto field-effect transistor; broths of Streptococcus pneumoniae with different concentrations; FIG. 3. From the text: UlaG protein is expressed in the cell wall of Streptococcus pneumoniae. The following experimental example used the biological sensing device of the present invention to detect whether the sample included Streptococcus pneumoniae, and the detecting method included the following steps: • 1. The amino acid sequence including the sequence shown in SEQ ID NO: 1 was largely expressed by Escherichia coli. • 2. The amino acid sequence in step 1 was purified, and then modified onto a surface of a field-effect transistor. • 3. The field-effect transistor modified with the amino acid sequence in step 2 was contact to broths of Streptococcus pneumoniae with different concentrations, and the potential difference of the surface of the field-effect transistor modified was measured. The strain of Streptococcus pneumoniae used in this experimental example was ATCC 49136.
FIG. 2 is a schematic view of a biological sensing device 300 according to an embodiment of the present invention detecting a biomolecule 400. […]
FIG. 3 is a potential difference-bacterial concentration diagram of an embodiment of the present invention for the detecting experiment, which the bacterial concentration is represented by the number of colonies per milliliter (mL) of the broth. […] The Streptococcus pneumoniae can be detected by the change in the surface potential.

Consider “SEQ ID NO: 1: short sequence of 7 amino acids, selected by phage display, that binds the UlaG protein; used on the field-effect transistor (ENIMPVL; amino acid sequence bound to UlaG protein)”, for which the “potential difference of the surface of the field-effect transistor vs bacterial concentration” value in the experiment with Streptococcus mutans (amino acid sequence modified onto field-effect transistor, broths of Streptococcus mutans with different concentrations) was “did not change accordingly with the increase of the bacterial concentration”; with Streptococcus pneumoniae, “increased with the increase of the bacterial concentration”. Further, in the experiment on Streptococcus mutans (field-effect transistor device), the “reaction of the amino acid sequence with Streptococcus mutans” value was “does not react”. In addition, the “binding affinity to the UlaG protein” value with UlaG protein is recorded as “high binding affinities”.
Regarding “SEQ ID NO: 2: short sequence of 7 amino acids, selected by phage display, that binds the UlaG protein (ERIMPVL; amino acid sequence bound to UlaG protein)”, the “binding affinity to the UlaG protein” value with UlaG protein is “high binding affinities”.
